According to patent publication US20060069132A1, “Azolecarboxamide herbicides” (priority 2004, published 2006):

Experiments:
barnyardgrass [1] = test: Test B pre-/postemergence herbicide test; format: in vivo, Echinochloa crus-galli; conditions: for Barnyardgrass plant response rating: postemergence
Method in brief: (§1)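 Visual rating, 0 (no effect) to 100 (complete control), versus untreated controls after 13–15 d in greenhouse. Pre- and postemergence applications (postemergence plants 2–18 cm, 1–4 leaves); flooded paddy arm at 2-leaf stage. Compounds in non-phytotoxic solvent plus surfactant.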

Surinam grass = test: Test B pre-/postemergence herbicide test; format: in vivo, Urochloa decumbens; conditions: for Surinam Grass plant response rating: postemergence
Method in brief: (§2)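 Evaluation is visual, comparing treated with control plants on a scale where 0 means no effect and 100 means full control. Treatments were preemergence, or postemergence on seedlings 2–18 cm tall, and held 13–15 days in the greenhouse.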

morningglory = test: Test B pre-/postemergence herbicide test; format: in vivo, Ipomoea coccinea; conditions: for Morningglory plant response rating: postemergence
Method in brief: as §1

giant foxtail = test: Test B pre-/postemergence herbicide test; format: in vivo, Setaria faberi; conditions: for Foxtail, Giant plant response rating: postemergence
Method in brief: as §2

ducksalad = test: Test B flooded paddy test; format: in vivo, Heteranthera limosa; conditions: 1000 g ai/ha, visual rating, scale 0 to 100 (0 no effect, 100 complete control), 13 to 15 days
Method in brief: (§3)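 Visual ratings, 0 (no effect) to 100 (complete control), made versus controls after 13–15 d greenhouse. Paddy plants treated at 2-leaf stage; postemergence plants at 1- to 4-leaf stage, 2–18 cm tall.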

[2] = test system: small flower umbrella sedge; test: Test B flooded paddy test; format: in vivo, Cyperus difformis; conditions: 1000 g ai/ha, visual rating, scale 0 to 100 (0 no effect, 100 complete control), 13 to 15 days
Method in brief: as §3

rice [3] = test: Test B flooded paddy test; format: in vivo, Oryza sativa; conditions: 1000 g ai/ha, visual rating, scale 0 to 100 (0 no effect, 100 complete control), 13 to 15 days
Method in brief: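 Each value is a visual 0–100 response rating taken against controls 13 to 15 days after treatment in the greenhouse. Plants received formulated chemical postemergence at the 1- to 4-leaf stage or, in flooded paddy, at the 2-leaf stage.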

cocklebur = test: Test B pre-/postemergence herbicide test; format: in vivo, Xanthium strumarium; conditions: for Cocklebur plant response rating: postemergence
Method in brief: as §1

blackgrass = test: Test B postemergence herbicide test; format: in vivo, Alopecurus myosuroides; conditions: scale 0 (no effect) to 100 (complete control); for Blackgrass plant response rating: postemergence, visual rating
Method in brief: as §3

barnyardgrass [4] = test: Test B flooded paddy test; format: in vivo, Echinochloa crus-galli; conditions: 1000 g ai/ha, visual rating, scale 0 to 100 (0 no effect, 100 complete control), 13 to 15 days
Method in brief: as §3

large crabgrass = test: Test B pre-/postemergence herbicide test; format: in vivo, Digitaria sanguinalis; conditions: for Crabgrass, Large plant response rating: postemergence
Method in brief: as §2

velvetleaf = test: Test B pre-/postemergence herbicide test; format: in vivo, Abutilon theophrasti; conditions: for Velvetleaf plant response rating: postemergence
Method in brief: as §2

pigweed = test: Test B pre-/postemergence herbicide test; format: in vivo, Amaranthus retroflexus; conditions: for Pigweed plant response rating: postemergence
Method in brief: as §2

rice [5] = test: Test B pre-/postemergence herbicide test; format: in vivo, Oryza sativa; conditions: preemergence
Method in brief: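 Plants compared with untreated controls 13–15 days post-treatment and given a visual 0–100 injury score. Applications: preemergence to seeds; postemergence at 1- to 4-leaf (2–18 cm); paddy species flooded, 2-leaf stage. Vehicle non-phytotoxic, surfactant included.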

wheat = test: Test B postemergence herbicide test; format: in vivo, Triticum aestivum; set-up: key to Wheat plant response rating: 0 = no effect, 100 = complete control; conditions: scale 0 (no effect) to 100 (complete control); for Wheat plant response rating: postemergence, visual rating
Method in brief: (§4)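 Formulated test chemicals went onto postemergence plants measuring 2 to 18 cm, at one to four leaves. For the paddy assay, species had reached two leaves. Scoring took place 13–15 days later by eye, relative to untreated plants, using 0 for no effect up to 100 for full control.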

lambsquarters = test: Test B pre-/postemergence herbicide test; format: in vivo, Chenopodium album; conditions: for Lambsquarters plant response rating: postemergence
Method in brief: as §2

wild oat = test: Test B postemergence herbicide test; format: in vivo, Avena fatua; conditions: scale 0 (no effect) to 100 (complete control); for Oat, Wild plant response rating: postemergence, visual rating
Method in brief: as §4

corn = test: Test B pre-/postemergence herbicide test; format: in vivo, Zea mays; conditions: for Corn plant response rating: postemergence
Method in brief: as §2

[6] = 500 g ai/ha, visual rating 0-100, 0 no effect, 100 complete control, preemergence
[7] = Postemergence, 500 g ai/ha, visual rating after 13 to 15 days, scale 0 (no effect) to 100 (complete control)
[8] = 125 g ai/ha, visual rating, scale 0 (no effect) to 100 (complete control)
[9] = preemergence, 125 g ai/ha, 0 to 100 scale, 0 is no effect, 100 is complete control
[10] = Postemergence, 500 g ai/ha, visual rating after 13 to 15 days
[11] = 125 g ai/ha, 0 = no effect, 100 = complete control, preemergence
[12] = 500 g ai/ha, visual rating, scale 0 (no effect) to 100 (complete control)
[13] = 125 g ai/ha, 0 = no effect, 100 = complete control
[14] = 500 g ai/ha, visual rating, 0 = no effect, 100 = complete control, preemergence

CCCCn1nc(C(C)(C)C)cc1C(=O)Nc1cccc(C(C)=NO)c1 [Compound 119]
Plant response rating, Barnyardgrass (barnyardgrass [1]; [6]): 10
Plant response rating, Barnyardgrass (barnyardgrass [1]; [7]): 10
Barnyardgrass plant response rating (barnyardgrass [1]; [8]): 0
Plant response rating, Barnyardgrass (barnyardgrass [1]; [9]): 0
Plant response rating, Surinam Grass (Surinam grass; [6]): 10
Plant response rating, Surinam Grass (Surinam grass; [7]): 10
Surinam Grass plant response rating (Surinam grass; [8]): 10
Plant response rating, Surinam Grass (Surinam grass; [9]): 0
Plant response rating, Morningglory (morningglory; [6]): 10
Plant response rating, Morningglory (morningglory; [7]): 40
Morningglory plant response rating (morningglory; [8]): 0
Plant response rating, Morningglory (morningglory; [9]): 0
Plant response rating, Foxtail, Giant (giant foxtail; [6]): 0
Plant response rating, Foxtail, Giant (giant foxtail; [7]): 10
Foxtail, Giant plant response rating (giant foxtail; [8]): 10
Plant response rating, Foxtail, Giant (giant foxtail; [9]): 0
Ducksalad plant response rating (ducksalad): 0
Sedge, Umbrella plant response rating [2]: 0
Rice plant response rating (rice [3]): 0
Plant response rating, Cocklebur (cocklebur; [6]): 0
Plant response rating, Cocklebur (cocklebur; [7]): 60
Cocklebur plant response rating (cocklebur; [8]): 0
Plant response rating, Cocklebur (cocklebur; [9]): 0
Plant response rating, Blackgrass (blackgrass; [10]): 10
Blackgrass plant response rating (blackgrass; 125 g ai/ha): 0
Barnyardgrass plant response rating (barnyardgrass [4]): 0
Plant response rating, Crabgrass, Large (large crabgrass; [6]): 80
Plant response rating, Crabgrass, Large (large crabgrass; [7]): 20
Crabgrass, Large plant response rating (large crabgrass; [8]): 20
Plant response rating, Crabgrass, Large (large crabgrass; [9]): 20
Plant response rating, Velvetleaf (velvetleaf; [6]): 10
Plant response rating, Velvetleaf (velvetleaf; [7]): 50
Velvetleaf plant response rating (velvetleaf; [8]): 0
Plant response rating, Velvetleaf (velvetleaf; [9]): 0
Plant response rating, Pigweed (pigweed; [6]): 0
Plant response rating, Pigweed (pigweed; [7]): 30
Pigweed plant response rating (pigweed; [8]): 0
Plant response rating, Pigweed (pigweed; [9]): 0
Plant response rating, Rice (rice [5]; 125 g ai/ha, 0 to 100 scale, 0 is no effect, 100 is complete control): 0
Plant response rating, Wheat (wheat; [10]): 0
Wheat plant response rating (wheat; 125 g ai/ha): 0
Plant response rating, Lambsquarters (lambsquarters; [6]): 0
Plant response rating, Lambsquarters (lambsquarters; [7]): 60
Lambsquarters plant response rating (lambsquarters; [8]): 0
Plant response rating, Lambsquarters (lambsquarters; [9]): 0
Plant response rating, Oat, Wild (wild oat; [10]): 20
Oat, Wild plant response rating (wild oat; 125 g ai/ha): 10
Plant response rating, Corn (corn; [6]): 0
Plant response rating, Corn (corn; [7]): 30
Corn plant response rating (corn; [8]): 10
Plant response rating, Corn (corn; [9]): 0

CCN(CC)C(=O)c1cccc(NC(=O)c2nn(C(C)(C)C)cc2C(F)(F)F)c1 [Compound 169]
Barnyardgrass plant response rating (0 to 100 scale) (barnyardgrass [1]; [11]): 0
Plant response rating, Barnyardgrass (barnyardgrass [1]; [6]): 10
Barnyardgrass plant response rating (barnyardgrass [1]; [8]): 0
Barnyardgrass plant response rating (barnyardgrass [1]; [12]): 10
Surinam Grass plant response rating (0 to 100 scale) (Surinam grass; [11]): 0
Plant response rating, Surinam Grass (Surinam grass; [6]): 10
Surinam Grass plant response rating (Surinam grass; [8]): 0
Surinam Grass plant response rating (Surinam grass; [12]): 10
Morningglory plant response rating (0 to 100 scale) (morningglory; [11]): 0
Plant response rating, Morningglory (morningglory; [6]): 10
Morningglory plant response rating (morningglory; [8]): 20
Morningglory plant response rating (morningglory; [12]): 70
Foxtail, Giant plant response rating (0 to 100 scale) (giant foxtail; [11]): 0
Plant response rating, Foxtail, Giant (giant foxtail; [6]): 10
Foxtail, Giant plant response rating (giant foxtail; [8]): 0
Foxtail, Giant plant response rating (giant foxtail; [12]): 0
Ducksalad plant response rating (ducksalad): 0
Sedge, Umbrella plant response rating [2]: 0
Rice plant response rating (rice [3]): 0
Cocklebur plant response rating (0 to 100 scale) (cocklebur; [11]): 0
Plant response rating, Cocklebur (cocklebur; [6]): 0
Cocklebur plant response rating (cocklebur; [8]): 0
Cocklebur plant response rating (cocklebur; [12]): 0
Blackgrass plant response rating (blackgrass; 125 g ai/ha): 0
Blackgrass plant response rating (blackgrass; 500 g ai/ha): 10
Barnyardgrass plant response rating (barnyardgrass [4]): 0
Crabgrass, Large plant response rating (0 to 100 scale) (large crabgrass; [11]): 0
Plant response rating, Crabgrass, Large (large crabgrass; [6]): 40
Crabgrass, Large plant response rating (large crabgrass; [8]): 10
Crabgrass, Large plant response rating (large crabgrass; [12]): 10
Velvetleaf plant response rating (0 to 100 scale) (velvetleaf; [11]): 0
Plant response rating, Velvetleaf (velvetleaf; [6]): 0
Velvetleaf plant response rating (velvetleaf; [8]): 0
Velvetleaf plant response rating (velvetleaf; [12]): 0
Pigweed plant response rating (0 to 100 scale) (pigweed; [11]): 0
Plant response rating, Pigweed (pigweed; [6]): 100
Pigweed plant response rating (pigweed; [8]): 20
Pigweed plant response rating (pigweed; [12]): 40
Rice plant response rating (0 to 100 scale) (rice [5]; [13]): 0
Plant response rating, Rice (rice [5]; 500 g ai/ha, visual rating 0-100, 0 no effect, 100 complete control): 0
Wheat plant response rating (wheat; 125 g ai/ha): 0
Wheat plant response rating (wheat; 500 g ai/ha): 0
Lambsquarters plant response rating (0 to 100 scale) (lambsquarters; [11]): 0
Plant response rating, Lambsquarters (lambsquarters; [6]): 60
Lambsquarters plant response rating (lambsquarters; [8]): 40
Lambsquarters plant response rating (lambsquarters; [12]): 60
Oat, Wild plant response rating (wild oat; 125 g ai/ha): 10
Oat, Wild plant response rating (wild oat; 500 g ai/ha): 10
Corn plant response rating (0 to 100 scale) (corn; [11]): 0
Plant response rating, Corn (corn; [6]): 0
Corn plant response rating (corn; [8]): 10
Corn plant response rating (corn; [12]): 10

CCN(CC)C(=O)c1cccc(NC(=O)c2nn(C(C)(C)C)cc2Br)c1 [Compound 220]
Barnyardgrass plant response rating (0 to 100 scale) (barnyardgrass [1]; [11]): 0
Plant response rating, Barnyardgrass (barnyardgrass [1]; [14]): 0
Barnyardgrass plant response rating (barnyardgrass [1]; [8]): 0
Barnyardgrass plant response rating (barnyardgrass [1]; [12]): 0
Surinam Grass plant response rating (0 to 100 scale) (Surinam grass; [11]): 0
Plant response rating, Surinam Grass (Surinam grass; [14]): 10
Surinam Grass plant response rating (Surinam grass; [8]): 0
Surinam Grass plant response rating (Surinam grass; [12]): 10
Morningglory plant response rating (0 to 100 scale) (morningglory; [11]): 0
Plant response rating, Morningglory (morningglory; [14]): 0
Morningglory plant response rating (morningglory; [8]): 0
Morningglory plant response rating (morningglory; [12]): 0
Foxtail, Giant plant response rating (0 to 100 scale) (giant foxtail; [11]): 0
Plant response rating, Foxtail, Giant (giant foxtail; [14]): 10
Foxtail, Giant plant response rating (giant foxtail; [8]): 0
Foxtail, Giant plant response rating (giant foxtail; [12]): 10
Ducksalad plant response rating (ducksalad): 40
Sedge, Umbrella plant response rating [2]: 80
Rice plant response rating (rice [3]): 0
Cocklebur plant response rating (0 to 100 scale) (cocklebur; [11]): 0
Plant response rating, Cocklebur (cocklebur; [14]): 0
Cocklebur plant response rating (cocklebur; [8]): 0
Cocklebur plant response rating (cocklebur; [12]): 10
Blackgrass plant response rating (blackgrass; 125 g ai/ha): 0
Blackgrass plant response rating (blackgrass; 500 g ai/ha): 0
Barnyardgrass plant response rating (barnyardgrass [4]): 0
Crabgrass, Large plant response rating (0 to 100 scale) (large crabgrass; [11]): 20
Plant response rating, Crabgrass, Large (large crabgrass; [14]): 100
Crabgrass, Large plant response rating (large crabgrass; [8]): 10
Crabgrass, Large plant response rating (large crabgrass; [12]): 10
Velvetleaf plant response rating (0 to 100 scale) (velvetleaf; [11]): 0
Plant response rating, Velvetleaf (velvetleaf; [14]): 0
Velvetleaf plant response rating (velvetleaf; [8]): 0
Velvetleaf plant response rating (velvetleaf; [12]): 0
Pigweed plant response rating (0 to 100 scale) (pigweed; [11]): 0
Plant response rating, Pigweed (pigweed; [14]): 100
Pigweed plant response rating (pigweed; [8]): 10
Pigweed plant response rating (pigweed; [12]): 10
Rice plant response rating (0 to 100 scale) (rice [5]; [13]): 0
Plant response rating, Rice (rice [5]; 500 g ai/ha, visual rating, 0 = no effect, 100 = complete control): 0
Wheat plant response rating (wheat; 125 g ai/ha): 0
Wheat plant response rating (wheat; 500 g ai/ha): 0
Lambsquarters plant response rating (0 to 100 scale) (lambsquarters; [11]): 0
Plant response rating, Lambsquarters (lambsquarters; [14]): 70
Lambsquarters plant response rating (lambsquarters; [8]): 10
Lambsquarters plant response rating (lambsquarters; [12]): 20
Oat, Wild plant response rating (wild oat; 125 g ai/ha): 0
Oat, Wild plant response rating (wild oat; 500 g ai/ha): 10
Corn plant response rating (0 to 100 scale) (corn; [11]): 0
Plant response rating, Corn (corn; [14]): 0
Corn plant response rating (corn; [8]): 10
Corn plant response rating (corn; [12]): 10
